Data set [1] is described as follows: Measurement of particle size, polydispersity index and zeta potential of lipid nanoparticle (Zetasizer). In kind it is physicochemical. The following applies: lipid nanoparticle containing siRNA; for Zeta potential (mV): pH 7.4 Tris-HCl; for Particle size (nm) / PDI: main lipid/DPPC/cholesterol=45/10/45; for Particle size (nm): Z-average in ultrapure water; for PDI: ultrapure water. As to the method:
30 μL of each of the dialyzed lipid nanoparticle-containing solutions obtained by the above operation was measured out, 800 μL of ultrapure water was added to dilute the lipid nanoparticle-containing solution, and the diluted preparation solution was used to measure the particle size (nm) and the polydispersity index (PDI) by using a Zetasizer (manufactured by Malvern Panalytical, Zetasizer nano Ultra). The particle size was evaluated by Z-average in ultrapure water. The zeta potential was measured by using pH 7.4 Tris-HCl as a dilute solution.

The nature of data set [2]: siRNA / mRNA encapsulation rate of lipid nanoparticle (RiboGreen). In kind it is physicochemical. As to conditions: siRNA encapsulation rate of lipid nanoparticle. As to the method: The siRNA encapsulation rate and the mRNA encapsulation rate of the lipid nanoparticle were obtained as follows. First, a surfactant (Sigma-Aldrich, Triton (registered trademark), X-100 (reducing type)) was added to the lipid nanoparticle-containing solution to disrupt the lipid nanoparticle to release the encapsulated siRNA or mRNA. The amounts of the lipid nanoparticle-containing solution and the surfactant were adjusted such that the siRNA or the mRNA was 2 pmol and the surfactant was 1% in 40 μL of the solution after adding the surfactant to the lipid nanoparticle-containing solution. Next, the RiboGreen reagent (reagent that reacts with siRNA to emit fluorescence, manufactured by Thermo Fisher Scientific, Quant-iT (registered trademark) RiboGreen (registered trademark) RNA Assay Kit) was added to the solution, and the fluorescence intensity was measured under conditions of an excitation wavelength of 480 nm and a fluorescence wavelength of 520 nm with a fluorescence intensity meter (manufactured by TECAN, Infinite M200). Specifically, 75 μL of the RiboGreen reagent diluted to 1/2000 was added to a diluted solution obtained by adding 65 μL of citrate buffer to 10 μL of the solution, and the fluorescence intensity was measured. This makes it possible to relatively measure the total amount of the siRNA or the total amount of the mRNA present in the solution.
Subsequently, the RiboGreen reagent was added to the lipid nanoparticle-containing solution without adding a surfactant, and the fluorescence intensity was measured in the same manner with a fluorescence intensity meter. By not adding a surfactant, it is possible to relatively measure the amount of the siRNA or the mRNA free in the solution without being encapsulated in the lipid nanoparticle.
Then, the fluorescence intensity obtained from the solution to which the surfactant was added obtained as described above was fluorescence intensity a, and the fluorescence intensity thus obtained from the solution to which no surfactant was added obtained as described above was fluorescence intensity b, and according to the expression (a−b)/a×100, the siRNA encapsulation rate (%) or the mRNA encapsulation rate (%) of the lipid nanoparticle was obtained. Each of fluorescence intensity a and fluorescence intensity b is a value obtained by subtracting a blank from the arithmetic average value of the results of three measurements for each solution. The blank was measured by carrying out the same operation on a well containing water containing no cell or lipid nanoparticle.

The test system of data set [3] is HT1080-EGFP (human/fibrosarcoma) cells. Nature of the data set: Evaluation of knockdown effect (GFP assay), Cell experiment 1. Format: cell-based. The following applies: lipid nanoparticle containing siRNA against EGFP; fluorescence intensity with control cells without lipid nanoparticle set at 100. The protocol: A cell experiment was carried out by using HT1080-EGFP (human/fibrosarcoma) cells in order to evaluate lipid nanoparticles encapsulating an siRNA produced by using the lipids of the Examples and the Comparative Examples. These cells are cells provided with a green fluorescent protein gene (EGFP). The expression of EGFP can be easily confirmed by measuring the fluorescence intensity of a solution in which the cells are lysed, and thus by acting lipid nanoparticles encapsulating an siRNA that suppresses the expression of EGFP and observing any decrease in fluorescence intensity, the performance of the lipid nanoparticles used can be evaluated. Hereinafter, the procedure of the cell experiment will be shown.
(§1) A. Provision of Cells • (i) A liquid medium (DMEM/Ham's F12, FBS+, P/S+) (FBS: fetal bovine serum, P/S: antibiotic) was taken out from a refrigerator and temperature-controlled in an incubator set at 37° C. • (ii) A cryotube containing the cells was taken out from a −80° C. freezer and thawed at once in an incubator set at 37° C. • (iii) A stock solution of the thawed cells was collected in a capped test tube. • (iv) The tube containing the cells was washed with the liquid medium, and the wash was also collected in the test tube. • (v) The tube was subjected to a centrifuge to precipitate the cells. • (vi) The supernatant was aspirated, and the liquid medium was added and gently tapped to disperse the cells. • (vii) A small amount of the cells-dispersed liquid medium was collected, and the number of cells was observed and counted under a microscope. • (viii) The cells were seeded in a 24-well plate such that the number of cells was 2×10^4 cells per well. For the plate for an LDH assay described later, the cells were seeded in a 96-well plate such that the number of cells was 4×10^3 cells per well. • (ix) The 24-well plate or the 96-well plate was placed in an incubator, and the cells were cultured for 24 hours under conditions of 37° C. and 5% CO2.
The produced lipid nanoparticles were introduced into cells. • (i) Fetal bovine serum (FBS) was added to a liquid medium (FBS-, P/S-) temperature-controlled as in (i) of A above, in such a way as to reach 10%. • (ii) A 24-well plate was taken out from an incubator, and the liquid medium supernatant in the 24-well plate was aspirated and washed with phosphate buffered saline (PBS). • (iii) 400 μL of the liquid medium produced in (i) above was added to the washed 24-well plate. In addition, 100 μL of an LNP solution having an adjusted concentration was added. • (iv) The 24-well plate was placed in the incubator, and the cells were cultured (for 24 hours). • (v) After 24 hours, the liquid medium supernatant in the 24-well plate was aspirated, and 500 μL of a liquid medium containing 10% FBS (FBS+/P/S+) was added. • (vi) The 24-well plate was placed in the incubator, and the cells were cultured for 24 hours under conditions of 37° C. and 5% CO2.
By carrying out a GFP assay, the EGFP expression level in cells was measured to evaluate the effect of knocking down the green fluorescent protein gene (EGFP) by lipid nanoparticles. • (i) A 24-well plate was taken out from an incubator and washed with PBS. • (ii) A 1% octylglucoside solution to which a protease inhibitor was added was added in order to disrupt cells. Stirring with a pipette lysed the cells. • (iii) The cell lysate was transferred to an Eppendorf tube and subjected to a centrifuge. • (iv) 150 μL of the supernatant was collected and added to a plate for fluorescence measurement. • (v) The fluorescence intensity was measured under conditions of an excitation wavelength of 485 nm and a fluorescence wavelength of 535 nm with a plate reader (manufactured by TECAN, Infinite M200). The fluorescence intensity was calculated with the fluorescence intensity of control cells to which no lipid nanoparticle was added set at 100.

Data set [4] has the same test system. Nature of the data set: Evaluation of toxicity: LDH assay. Format: cell-based. As to conditions: lipid nanoparticle containing siRNA; absorbance relative to control cells without lipid nanoparticle set at 1.00. The protocol:
as §1
The introduction of lipid nanoparticles into cells for an LDH assay described later was carried out as follows. • (i) A 96-well plate was taken out from an incubator. • (ii) The liquid medium supernatant in the 96-well plate was aspirated and washed with phosphate buffered saline (PBS). • (iii) 160 μL of a liquid medium containing 10% FBS (FBS+/P/S+) was added to the washed 96-well plate. In addition, 40 μL of an LNP solution having an adjusted concentration was added. • (iv) The 96-well plate was placed in the incubator, and the cells were cultured for 24 hours under conditions of 37° C. and 5% CO2.
For Examples 1 to 9, a CCK-8 assay or an LDH assay was carried out to measure the metabolic activity of viable cells and relatively quantify the number of surviving cells to evaluate the toxicity of lipid nanoparticles.
An LDH assay was carried out by using a viable cell counting kit (DOJINDO LABORATORIES, Cytotoxicity LDH Assay Kit-WST) as follows. • (i) 20 μL of a lysis buffer was added to each of positive control wells and incubated at 37° C. for 30 minutes in an incubator. • (ii) 100 μL of the supernatant was taken from each well and transferred to a 96-well plate for measurement. • (iii) 100 μL of the reagent mixture attached to the kit was added to all the wells, and a color reaction was carried out for 30 minutes at room temperature with exclusion of light. • (iv) 50 μL of the stop solution reagent attached to the kit was added to all the wells. • (v) The 96-well plate was measured under conditions of a measurement wavelength of 490 nm and a target wavelength of 630 nm with a plate reader (manufactured by TECAN, Infinite M200) to calculate the absorbance. The absorbance was calculated with the absorbance of control cells to which no lipid nanoparticle was added set at 1.00. When the obtained value was 0.50 or less, a rating of double-circle (excellent) was given, when the obtained value was more than 0.50 and 1.0 or less, a rating of circle (good) was given, when the obtained value was more than 1.0 and less than 6.0, a rating of triangle (fair) was given, and when the obtained value was 6.0 or more, a rating of X-mark (poor) was given.

Experimental findings from US20240148664A1, “LIPID AND COMPOSITION” (SOGO PHARMACEUTICAL CO., LTD., priority 2021, published 2024) are described below.

As for `CCCCCCCC/C=C\CCCCCCCCC(CCCCCCC/C=C\CCCCCCCC)OC(=O)C(N)C(C)O` (stereo not drawn) [Comparative Example 1, (9Z,27Z)-hexatriaconta-9,27-dien-18-yl 2-amino-3-hydroxybutanoate, reference compound], in data set [1], the “Zeta potential (mV)” value is 27.8 mV.
Consider `CCCCCCCC/C=C\CCCCCCCCC(CCCCCCC/C=C\CCCCCCCC)OC(=O)[C@@H](N)CCCCN` (stereo partly drawn) [Comparative Example 4, (9Z,27Z)-hexatriaconta-9,27-dien-18-yl lysinate, reference compound], for which, in data set [1], the “Particle size (nm)” value was 147.5 nm, the PDI was determined as 0.063 and the “Zeta potential (mV)” value stood at 26.5 mV. The “Encapsulation rate (%)” value in data set [2] is 99%. Further, the “GFP Assay” value in data set [3] was 86.
For `CCCCC/C=C\CCCC(CC/C=C\CCCCC)OC(=O)C(N)CCCCN` (stereo not drawn) [Comparative Example 5, (6Z,14Z)-icosa-6,14-dien-10-yl lysinate, reference compound], in data set [1], the “Particle size (nm)” value came out at 324.5 nm, the PDI amounted to 0.731 and the “Zeta potential (mV)” value amounted to 50.8 mV. Also, the “Encapsulation rate (%)” value in data set [2] stood at 100%.
Regarding `CCCCCC/C=C\CCCCCCCCC(CCCCCCC/C=C\CCCCCC)OC(=O)C(N)CCCCN` (stereo not drawn) [Comparative Example 6, (7Z,25Z)-dotriaconta-7,25-dien-16-yl lysinate, reference compound], in data set [1], the “Particle size (nm)” value came to 212.1 nm, the PDI came to 0.022 and the “Zeta potential (mV)” value is recorded as 27.5 mV. Moreover, the “Encapsulation rate (%)” value in data set [2] is recorded as 99%.
The like results for `CCCCCCCC/C=C\CCCCCCCCCCCCC(CCCCCCCCCCC/C=C\CCCCCCCC)OC(=O)[C@@H](N)CCCCN` (stereo partly drawn) [Comparative Example 7, (9Z,35Z)-tetratetraconta-9,35-dien-22-yl lysinate, reference compound] were, in that order, 149.8 nm, 0.021, 21.0 mV and 99%.
Consider `CC/C=C\CCC(CCCCCCC/C=C\CCCCCC)OC(=O)[C@@H](N)CCCCN` (stereo partly drawn) [Comparative Example 8, (3Z,15Z)-docosa-3,15-dien-7-yl lysinate, reference compound], for which, in data set [1], the “Particle size (nm)” value came out at 233.1 nm, the PDI was found to be 0.187 and the “Zeta potential (mV)” value is 29.7 mV. In data set [2], the “Encapsulation rate (%)” value is given as 100%.
The like results for `CC/C=C\CCC(CCCCCCCCCCC/C=C\CCCCCCCC)OC(=O)[C@@H](N)CCCCN` (stereo partly drawn) [Comparative Example 9, (3Z,19Z)-octacosa-3,19-dien-7-yl lysinate, reference compound] were, in that order, 759.4 nm, 0.508, 32.7 mV and 100%.
Turning to `CCCCCCCC/C=C\CCCCCCCCC(CCCCCCC/C=C\CCCCCCCC)OC(=O)C(Cc1c[nH]cn1)NC(=O)C(N)CCCNC(=N)N` (stereo not drawn) [Example 3, (9Z,27Z)-hexatriaconta-9,27-dien-18-ylarginylhistidinate], the “LDH Assay” value in data set [4] was “◯ (when the obtained value was more than 0.50 and 1.0 or less, a rating of circle (good) was given)”. Also, in data set [3], the “GFP Assay” value was determined as 22.
In the case of `CCCCC/C=C\C/C=C\CCCCCCCCC(CCCCCCC/C=C\C/C=C\CCCCC)OC(=O)C(NC(=O)C(N)CCCNC(=N)N)C(C)O` (stereo not drawn) [Example 10, (6Z,9Z,27Z,30Z)-hexatriaconta-6,9,27,30-tetraen-18-yl 2-(2-amino-5-guanidinopentanamido)-3-hydroxybutanoate], in data set [1], the “Particle size (nm)” value turned out to be 103.6 nm, the PDI came out at 0.095 and the “Zeta potential (mV)” value worked out at 36.8 mV. Further, in data set [2], the “Encapsulation rate (%)” value was 98%. In addition, in data set [3], the “GFP Assay” value came to 11.
